Here are results for 13 compounds from ChEMBL document CHEMBL1145613, “Tubulysin analogs incorporating desmethyl and dimethyl tubuphenylalanine derivatives” (Bioorg Med Chem Lett, 2008).

The subject of one assay is 1A9. In words: Antiproliferative activity against human 1A9 cells. The format is functional, cell-based.
Assay [1] is described as follows: Inhibition of rat brain tubulin polymerization.

For `CC[C@H](C)[C@H](NC(=O)[C@@H]1CCCCN1C)C(=O)N[C@H](CC(=O)c1nc(C(=O)N[C@H](CCC(=O)O)Cc2ccccc2)cs1)C(C)C`, the half-inhibitory concentration (IC50) was over 50 µM in the assay with 1A9 and 13 µM in assay [1].

With `CN[C@H](C(=O)N[C@H](C(=O)N(C)[C@H](/C=C(\C)C(=O)O)C(C)C)C(C)(C)C)C(C)(C)c1ccccc1` [TALTOBULIN], the half-maximal inhibitory concentration (IC50) in the assay with 1A9 came to 0.0003 µM; in assay [1] it was 0.7 µM.

As for `CC[C@H](C)[C@H](NC(=O)[C@H]1CCCCN1)C(=O)N[C@H](CC(=O)c1nc(C(=O)N[C@H](CCC(=O)O)Cc2ccccc2)cs1)C(C)C`, the IC50 was over 50 µM in the assay with 1A9 and 4.4 µM in assay [1].

For the compound `CC[C@H](C)[C@H](NC(=O)[C@H]1CCCN1C)C(=O)N[C@H](CC(=O)c1nc(C(=O)N[C@H](CCC(=O)O)Cc2ccccc2)cs1)C(C)C`, the IC50 in the assay with 1A9 was 24 µM; in assay [1] it was 2.3 µM.

With `CC[C@H](C)[C@H](NC(=O)[C@H]1CCCN1C)C(=O)N[C@H](CC(=O)c1nc(C(=O)N[C@@H](Cc2ccccc2)CC(C)(C)C(=O)O)cs1)C(C)C`, the figures for the half-inhibitory concentration (IC50) (in the assay on 1A9; in assay [1]) were 3.2 µM and 2.7 µM, respectively.

Take `CC[C@H](C)[C@H](NC(=O)[C@@H]1CCCCN1)C(=O)N[C@H](CC(=O)c1nc(C(=O)N[C@H](CCC(=O)O)Cc2ccccc2)cs1)C(C)C`: the half-inhibitory concentration (IC50) is over 50 µM in the assay with 1A9 and over 20 µM in assay [1].

With `CC[C@H](C)[C@H](NC(=O)[C@@H]1CCCN1C)C(=O)N[C@H](CC(=O)c1nc(C(=O)N[C@H](CCC(=O)O)Cc2ccccc2)cs1)C(C)C`, the concentration for half-maximal inhibition (IC50) in the assay with 1A9 came out at 50 µM; in assay [1], 11 µM.

In the case of `CC[C@H](C)[C@H](NC(=O)[C@H]1CCCCN1C)C(=O)N(COC(=O)CC(C)C)[C@H](C[C@@H](OC(C)=O)c1nc(C(=O)N[C@@H](Cc2ccc(O)cc2)C[C@H](C)C(=O)O)cs1)C(C)C` [TUBULYSIN-A], 0.75 µM corresponded to half-maximal inhibition in assay [1] (IC50).

In the case of `COc1ccc(/C=C\c2cc(OC)c(OC)c(OC)c2)cc1O` [COMBRETASTATIN A4], in the assay on 1A9, the IC50 came out at 0.0036 µM.

As to `CC[C@H](C)[C@H](NC(=O)[C@H]1CCCN1)C(=O)N[C@H](CC(=O)c1nc(C(=O)N[C@H](CCC(=O)O)Cc2ccccc2)cs1)C(C)C`, the results for the IC50 (with 1A9; in assay [1]) were over 50 µM and over 20 µM, respectively.

For `CC[C@H](C)[C@H](NC(=O)[C@@H]1CCCN1)C(=O)N[C@H](CC(=O)c1nc(C(=O)N[C@H](CCC(=O)O)Cc2ccccc2)cs1)C(C)C`, the IC50 with 1A9 was over 50 µM; in assay [1], over 20 µM.

As for `CC[C@H](C)[C@H](NC(=O)[C@H]1CCCCN1C)C(=O)N[C@H](CC(=O)c1nc(C(=O)N[C@H](CCC(=O)O)Cc2ccccc2)cs1)C(C)C`, the IC50 in the assay with 1A9 turned out to be 4 µM; in assay [1] it was 0.6 µM.

In the case of `CC[C@H](C)[C@H](NC(=O)[C@H]1CCCCN1C)C(=O)N[C@H](CC(=O)c1nc(C(=O)N[C@@H](Cc2ccccc2)CC(C)(C)C(=O)O)cs1)C(C)C`, the results for the IC50 (with 1A9; in assay [1]) were 0.3 µM and 1.5 µM, respectively.
